Laboratory results: US10093627B2, “Tetrahydroquinoline derivatives and their use as Epac inhibitors” (Institut National de la Sante et de la Recherche Medicale …, priority 2012, dated 2018)

System: Iso-induced ANF-Luc transcriptional activation
Assay: ANF-Luc transcriptional activation (Firefly luciferase assay) in rat neonatal cardiomyocytes
Type: cell-based
Settings: Iso 10 μM, 8 h; FIG. 4A
Method: ANF and NFAT promoters were fused to the Firefly luciferase gene (ANF-Luc) (NFAT-Luc) to detect ANF and NFAT by Firefly Luciferase assay (see Materiel and Methods).
Rat neonatal cardiomyocytes were cotransfected with ANF-Luc and Epac1 or empty vector pcDNA3 as control. One day after transfection, cells were pretreated or not with CE3F4 (20 μM) for 30 min and stimulated or not with Iso (10 μM) for 8 h. Cells were then assayed for Luciferase activity. B) Iso-induced NFAT-Luc Transcriptional Activation is Blocked by CE3F4: Neonatal cardiomyocytes were transfected with NFAT-Luc. One day later cells were pretreated or not with CE3F4 (20 μM) for 30 min and stimulated or not with Iso (10 μM) for 8 h. The day after, cells were assayed for Luciferase activity.
Results were normalized to control for each experiment, and were expressed as means±S.E.M of at 4 (FIG. 4A) or 5 (FIG. 4B) independent experiments performed in triplicates.
The rat ANF promoter fused to the Firefly luciferase reporter gene (ANF-Luc) by Dr K. Knowlton, Epac and Rap1 plasmid construct (Epac1^WT) by Drs J. L. Bos and J. de Gunzburg, respectively. The Firefly luciferase reporter plasmid driven by four NFAT consensus binding sites (NFAT-Luc) was purchased from Stratagene. […]
Cells were lysed, and luminescence was detected using the Luciferase Assay System (Promega) according to the manufacturer's instructions with Tecan Infinite.

SMILES: CC(C)NCC(O)c1ccc(O)c(O)c1 (stereo not shown) [Iso, Isoprenaline, reference compound]
- Effect of agonist on ANF (ANF-Luc): increased ANF
